Patent publication US10364245B2 (CHIESI FARMACEUTICI S.p.A., priority 2017, dated 2019)

Assays:
p38 alpha = biological target: T1, p38 alpha (Homo sapiens, UniProt Q16539); test: P38 alpha enzyme inhibition assay (Alphascreen kinase activity assay); type: biochemical; conditions: 100 pM p38 alpha, 2 hours preincubation at 25° C., 250 μM ATP, ATF-2 fusion protein; read-out: p38α inhibition
T1 construct: purchased Invitrogen PV3304
Method in brief: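 Phosphorylation of ATF-2 fusion protein (0.3 μg/ml) read by AlphaScreen with anti-phospho-ATF2 antibody after 1 h kinase reaction at 25 °C, initiated by 250 μM ATP. Compounds first incubated 2 h at 25 °C with 100 pM p38 alpha in pH 7.5 HEPES buffer, 1% DMSO. IC50 derived from concentration-response data.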

[1] = test system: Peripheral Blood Mononuclear Cells (PBMCs), TNFα release; test: LPS-stimulated PBMC TNFα release assay; type: cell-based; conditions: human PBMC, LPS (10 ng/ml), 18 h, compound 1 h before LPS; read-out: LPS-stimulated PBMC TNFα release inhibition
Method in brief: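 TNFα in cell-free supernatant, read on MSD plates, gave % inhibition curves and IC50 (≥3 separate experiments). Healthy-donor PBMCs had 1 h compound exposure at 37 °C in 1% FBS medium, then 18 h stimulation with 10 ng/ml LPS, after a 3 h serum-free rest.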

T1 sequence (Q16539 whole entry, the tested form may be a part): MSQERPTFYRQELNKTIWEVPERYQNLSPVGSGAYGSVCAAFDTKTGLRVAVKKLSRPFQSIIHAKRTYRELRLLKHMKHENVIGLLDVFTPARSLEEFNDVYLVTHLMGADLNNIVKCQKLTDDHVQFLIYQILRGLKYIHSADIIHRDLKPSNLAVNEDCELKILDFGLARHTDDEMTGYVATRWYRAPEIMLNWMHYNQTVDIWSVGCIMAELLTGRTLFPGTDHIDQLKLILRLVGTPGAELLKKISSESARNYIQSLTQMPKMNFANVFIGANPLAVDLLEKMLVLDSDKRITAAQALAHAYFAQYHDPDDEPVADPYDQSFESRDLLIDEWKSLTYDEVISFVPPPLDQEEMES

| IC50 (p38 alpha) [nM] | SMILES | IC50 [1] [nM] |
| --- | --- | --- |
| < 1 | CCN(C)CCNC(=O)c1nc(NC(=O)N[C@H]2CC[C@@H](Oc3ccc4nnc(C(C)(C)C)n4c3)c3ccccc32)cc(C(C)(C)C)n1 [Example 114, 4-(tert-butyl)-6-(3-((1S,4R)-4-((3-(tert-butyl)-[1,2,4]triazolo[4,3-a]pyridin-6-yl)oxy)-1,2,3,4-tetrahydronaphthalen-1-yl)ureido)-N-(2-(ethyl(methyl)amino)-ethyl)pyrimidine-2-carboxamide] | < 1 |
| < 1 | CN(C)C(C)(C)CNC(=O)c1nc(NC(=O)N[C@H]2CC[C@@H](Oc3ccc4nnc(C(C)(C)C)n4c3)c3ccccc32)cc(C(C)(C)C)n1 [Example 117, 4-(tert-butyl)-6-(3-((1S,4R)-4-((3-(tert-butyl)-[1,2,4]triazolo[4,3-a]pyridin-6-yl)oxy)-1,2,3,4-tetrahydronaphthalen-1-yl)ureido)-N-(2-(dimethylamino)-2-methylpropyl)pyrimidine-2-carboxamide] | < 1 |
| 1 to 10 | CN(C)CCCNC(=O)c1nc(NC(=O)N[C@H]2CC[C@@H](Oc3ccc4nnc(C(C)(C)C)n4c3)c3ccccc32)cc(C(C)(C)C)n1 [Example 118, 4-(tert-butyl)-6-(3-((1S,4R)-4-((3-(tert-butyl)-[1,2,4]triazolo[4,3-a]pyridin-6-yl)oxy)-1,2,3,4-tetrahydronaphthalen-1-yl)ureido)-N-(3-(dimethylamino)-propyl)pyrimidine-2-carboxamide] | 1 to 5 |
| < 1 | CN1CCN(CCNC(=O)c2nc(NC(=O)N[C@H]3CC[C@@H](Oc4ccc5nnc(C(C)(C)C)n5c4)c4ccccc43)cc(C(C)(C)C)n2)CC1 [Example 119, 4-(tert-butyl)-6-(3-((1S,4R)-4-((3-(tert-butyl)-[1,2,4]triazolo[4,3-a]pyridin-6-yl)oxy)-1,2,3,4-tetrahydronaphthalen-1-yl)ureido)-N-(2-(4-methylpiperazin-1-yl)ethyl)pyrimidine-2-carboxamide] | > 5 |
| < 1 | CC(C)(C)c1cc(NC(=O)N[C@H]2CC[C@@H](Oc3ccc4nnc(C(C)(C)C)n4c3)c3ccccc32)nc(C(=O)NCCN(CCO)CCO)n1 [Example 120, N-(2-(bis(2-hydroxyethyl)amino)ethyl)-4-(tert-butyl)-6-(3-((1S,4R)-4-((3-(tert-butyl)-[1,2,4]triazolo[4,3-a]pyridin-6-yl)oxy)-1,2,3,4-tetrahydronaphthalen-1-yl)ureido)pyrimidine-2-carboxamide] | > 5 |
| < 1 | COCC(C)(C)c1nnc2ccc(O[C@@H]3CC[C@H](NC(=O)Nc4cc(C(C)(C)C)nc(C(=O)NCCCN5CCOCC5)n4)c4ccccc43)cn12 [Example 121, 4-(tert-butyl)-6-(3-((1S,4R)-4-((3-(1-methoxy-2-methylpropan-2-yl)-[1,2,4]triazolo[4,3-a]pyridin-6-yl)oxy)-1,2,3,4-tetrahydronaphthalen-1-yl)ureido)-N-(3-morpholinopropyl)-pyrimidine-2-carboxamide] | 1 to 5 |
| < 1 | COCC(C)(C)c1nnc2ccc(O[C@@H]3CC[C@H](NC(=O)Nc4cc(C(C)(C)C)nc(C(=O)NCCN5CCCOCC5)n4)c4ccccc43)cn12 [Example 122, N-(2-(1,4-oxazepan-4-yl)ethyl)-4-(tert-butyl)-6-(3-((1S,4R)-4-((3-(1-methoxy-2-methylpropan-2-yl)-[1,2,4]triazolo[4,3-a]pyridin-6-yl)oxy)-1,2,3,4-tetrahydronaphthalen-1-yl)ureido)pyrimidine-2-carboxamide] | 1 to 5 |
| < 1 | COCC(C)(C)c1nnc2ccc(O[C@@H]3CC[C@H](NC(=O)Nc4cc(C(C)(C)C)nc(C(=O)NCCN(C)CCO)n4)c4ccccc43)cn12 [Example 123, 4-(tert-butyl)-N-(2-((2-hydroxyethyl)(methyl)-amino)ethyl)-6-(3-((1S,4R)-4-((3-(1-methoxy-2-methylpropan-2-yl)-[1,2,4]triazolo[4,3-a]pyridin-6-yl)oxy)-1,2,3,4-tetrahydronaphthalen-1-yl)ureido)pyrimidine-2-carboxamide] | 1 to 5 |
| 1 to 10 | COC(C)(C)c1nnc2ccc(O[C@@H]3CC[C@H](NC(=O)Nc4cc(C(C)(C)C)nc(C(=O)NCCCN5CCOCC5)n4)c4ccccc43)cn12 [Example 124] | 1 to 5 |
| 1 to 10 | COC(C)(C)c1nnc2ccc(O[C@@H]3CC[C@H](NC(=O)Nc4cc(C(C)(C)C)nc(C(=O)NCCN(C)CCO)n4)c4ccccc43)cn12 [Example 125, 4-(tert-butyl)-N-(2-((2-hydroxyethyl)(methyl)-amino)ethyl)-6-(3-((1S,4R)-4-((3-(2-methoxypropan-2-yl)-[1,2,4]triazolo[4,3-a]pyridin-6-yl)oxy)-1,2,3,4-tetrahydronaphthalen-1-yl)ureido)pyrimidine-2-carboxamide] | > 5 |
| < 1 | CN1CC(C(=O)NCc2nc(NC(=O)N[C@H]3CC[C@@H](Oc4ccc5nnc(C(C)(C)C)n5c4)c4ccccc43)cc(C(C)(C)C)n2)C1 [Example 126, N-((4-(tert-butyl)-6-(3-((1S,4R)-4-((3-(tert-butyl)-[1,2,4]triazolo[4,3-a]pyridin-6-yl)oxy)-1,2,3,4-tetrahydronaphthalen-1-yl)ureido)pyrimidin-2-yl)methyl)-1-methylazetidine-3-carboxamide] | > 5 |
| < 1 | CN(C)CCC(=O)NCc1nc(NC(=O)N[C@H]2CC[C@@H](Oc3ccc4nnc(C(C)(C)C)n4c3)c3ccccc32)cc(C(C)(C)C)n1 [Example 127, N-((4-(tert-butyl)-6-(3-((1S,4R)-4-((3-(tert-butyl)-[1,2,4]triazolo[4,3-a]pyridin-6-yl)oxy)-1,2,3,4-tetrahydronaphthalen-1-yl)ureido)pyrimidin-2-yl)methyl)-3-(dimethylamino)-propanamide] | > 5 |
| < 1 | CN1CCN(C(=O)c2nc(NC(=O)N[C@H]3CC[C@@H](Oc4ccc5nnc(C(C)(C)C)n5c4)c4ccccc43)cc(C(C)(C)C)n2)CC1 [Example 128, 1-(6-(tert-butyl)-2-(4-methylpiperazine-1-carbonyl)pyrimidin-4-yl)-3-((1S,4R)-4-((3-(tert-butyl)-[1,2,4]triazolo[4,3-a]pyridin-6-yl)oxy)-1,2,3,4-tetrahydronaphthalen-1-yl)urea] | > 5 |
| < 1 | CN1CC[C@@H](NC(=O)c2nc(NC(=O)N[C@H]3CC[C@@H](Oc4ccc5nnc(C(C)(C)C)n5c4)c4ccccc43)cc(C(C)(C)C)n2)C1 [Example 129, 4-(tert-butyl)-6-(3-((1S,4R)-4-((3-(tert-butyl)-[1,2,4]triazolo[4,3-a]pyridin-6-yl)oxy)-1,2,3,4-tetrahydronaphthalen-1-yl)ureido)-N-((R)-1-methylpyrrolidin-3-yl)pyrimidine-2-carboxamide] | > 5 |
| < 1 | CN(C)CCOCCNC(=O)c1nc(NC(=O)N[C@H]2CC[C@@H](Oc3ccc4nnc(C(C)(C)C)n4c3)c3ccccc32)cc(C(C)(C)C)n1 [Example 130, 4-(tert-butyl)-6-(3-((1S,4R)-4-((3-(tert-butyl)-[1,2,4]triazolo[4,3-a]pyridin-6-yl)oxy)-1,2,3,4-tetrahydronaphthalen-1-yl)ureido)-N-(2-(2-(dimethylamino)ethoxy)-ethyl)pyrimidine-2-carboxamide] | > 5 |
| < 1 | CCC(C)(C)c1nnc2ccc(O[C@@H]3CC[C@H](NC(=O)Nc4cc(C(C)(C)C)nc(C(=O)NCCN5CCOCC5)n4)c4ccccc43)cn12 [Example 131, 4-(tert-butyl)-N-(2-morpholinoethyl)-6-(3-((1S,4R)-4-((3-(tert-pentyl)-[1,2,4]triazolo[4,3-a]pyridin-6-yl)oxy)-1,2,3,4-tetrahydronaphthalen-1-yl)ureido)pyrimidine-2-carboxamide] | 1 to 5 |
| < 1 | CCC(C)(C)c1nnc2ccc(O[C@@H]3CC[C@H](NC(=O)Nc4cc(C(C)(C)C)nc(C(=O)NCCCN5CCOCC5)n4)c4ccccc43)cn12 [Example 132, 4-(tert-butyl)-N-(3-morpholinopropyl)-6-(3-((1S,4R)-4-((3-(tert-pentyl)-[1,2,4]triazolo[4,3-a]pyridin-6-yl)oxy)-1,2,3,4-tetrahydronaphthalen-1-yl)ureido)pyrimidine-2-carboxamide] | 1 to 5 |
| 1 to 10 | CN1CCC(NC(=O)c2nc(NC(=O)N[C@H]3CC[C@@H](Oc4ccc5nnc(C(C)(C)C)n5c4)c4ccccc43)cc(C(C)(C)C)n2)CC1 [Example 134, 4-(tert-butyl)-6-(3-((1S,4R)-4-((3-(tert-butyl)-[1,2,4]triazolo[4,3-a]pyridin-6-yl)oxy)-1,2,3,4-tetrahydronaphthalen-1-yl)ureido)-N-(1-methylpiperidin-4-yl)pyrimidine-2-carboxamide] | > 5 |
| < 1 | CN1CC[C@H](NC(=O)c2nc(NC(=O)N[C@H]3CC[C@@H](Oc4ccc5nnc(C(C)(C)C)n5c4)c4ccccc43)cc(C(C)(C)C)n2)C1 [Example 136, 4-(tert-butyl)-6-(3-((1S,4R)-4-((3-(tert-butyl)-[1,2,4]triazolo[4,3-a]pyridin-6-yl)oxy)-1,2,3,4-tetrahydronaphthalen-1-yl)ureido)-N-((S)-1-methylpyrrolidin-3-yl)pyrimidine-2-carboxamide] | > 5 |
